According to paper PMC5635798, “Alteration to Dopaminergic Synapses Following Exposure to Perfluorooctane Sulfonate (PFOS), in Vitro and in Vivo” (Medical Sciences, 2016):
pIC50: −log10 of the molar value.

Molecular target: T1, vesicular monoamine transporter 2 (VMAT2) (Homo sapiens, UniProt Q05940)
T1 construct: gene SLC18A2; human VMAT2 stably expressed in HEK293 cells (HEK-hVMAT2), pcDNA3.1
Experiment: inhibition of vesicular 3H-dopamine uptake in HEK-hVMAT2 cell fractions
Format: biochemical

T1 sequence (Q05940 whole entry): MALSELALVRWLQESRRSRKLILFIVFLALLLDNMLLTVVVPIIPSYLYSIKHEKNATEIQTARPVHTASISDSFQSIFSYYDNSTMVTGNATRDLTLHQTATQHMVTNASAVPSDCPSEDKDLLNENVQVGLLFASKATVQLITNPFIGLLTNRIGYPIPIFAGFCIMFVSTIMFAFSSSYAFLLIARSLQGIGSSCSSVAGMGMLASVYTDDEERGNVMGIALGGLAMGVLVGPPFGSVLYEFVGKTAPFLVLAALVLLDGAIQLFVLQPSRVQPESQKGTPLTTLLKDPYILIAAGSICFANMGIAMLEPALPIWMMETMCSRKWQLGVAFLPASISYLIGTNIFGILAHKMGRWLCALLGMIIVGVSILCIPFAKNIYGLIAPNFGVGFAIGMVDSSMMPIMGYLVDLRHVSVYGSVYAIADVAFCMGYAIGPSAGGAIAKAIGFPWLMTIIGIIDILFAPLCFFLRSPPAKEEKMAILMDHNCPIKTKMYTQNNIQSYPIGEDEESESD

O=S(=O)(O)C(F)(F)C(F)(F)C(F)(F)C(F)(F)C(F)(F)C(F)(F)C(F)(F)C(F)(F)F [PFOS]
pIC50: 5.34
